Results reported in patent US20050058600A1, “3,3'-Diindolylmethane antiandrogenic compositions” (priority 2003, published 2005).

Experiments:
[1] = tested on: benzo(a)pyrene (BP)-induced tumors of the forestomach; settings: mice; cited from earlier work
[2] = tested on: dimethylbenzanthracene (DMBA)-induced mammary tumors; settings: rats; cited from earlier work
prostate cancer cells = settings: cited from earlier work
[3] = tested on: BP-induced pulmonary adenomas; settings: mice; cited from earlier work
breast cancer cells = settings: in culture; cited from earlier work
[4] = tested on: skin surrounding the flank organ of the male Syrian hamster; test: Androgen-induced delay of hair growth in the Golden Syrian hamster; assay type: in vivo
Description: Mature male golden Syrian hamsters, 101-110 g, are obtained from Charles River Laboratories (Wilmington, Mass.). Pellet implant and blood drawing procedures are performed while animals are under general anaesthesia induced by isoflurane (Aerrane®, Fort Dodge Animal Health, Overland Park, Kans.). Testosterone propionate (TP) is administered in the form of 25 mg dose time-release pellets (Inovative Research of America, Toledo, Ohio). Antiandrogenic DIM derivatives (Example II, supra) are coadministered in parallel 25 mg dose time-release pellets. Control animals receive placebo pellets, which contain only carrier/binder excipients (cholesterol, lactose, celluloses, phosphates, and stearates).
Pellets are implanted subcutaneously. A skin incision is made with scissors on the upper dorsal side of the animal, equal in length to the pellet. A horizontal pocket is created with forceps about 2 cm beyond the incision site. Pellets are placed in the pocket with forceps, and incisions are then closed with a staple suture (Autoclip®, 9 mm, Stoelting Co., Wood Dale, Ill.). Immediately after pellet implantation, the fur on and around each flank organ is shaved with electric clippers. This is designated day 0 of the study. At day 7, the fur around the flank organ is re-clipped. […] On day 21 the surface diameters of the left and right flank organs (encompassed within the pigmented area) are measured with vernier callipers. […]
Sebaceous glands are evaluated in unstained whole mounts of ventral dermal sheets from the left ears. […] The gland areas are measured using an Optomax V image analysis system (Optomax, Hollis, N.H.). The percentage change in sebaceous gland size is calculated by comparing the testosterone-treated group with the placebo-treated group. Serum testosterone is measured by radioimmunoassay at an outside laboratory (AniLytics, Inc., Gaithersburg, Md.).
Hair growth is quantified using a visual grading system (0-3 scale, where 0=no growth, 3=full hair growth). […]

| Structure (SMILES) | incidence of BP-induced tumors of the forestomach [1] | incidence of DMBA-induced mammary tumors [2] | proliferation of prostate cancer cells (prostate cancer cells) | incidence of BP-induced pulmonary adenomas [3] | proliferation of breast cancer cells (breast cancer cells) | size of the flank organ and the ear sebaceous glands ([4]; 25 mg TP dose, after 21 days) | hair growth grade (0-3 scale) ([4]; TP alone, day 14) | hair growth ([4]; TP alone, day 21) |
| --- | --- | --- | --- | --- | --- | --- | --- | --- |
| OCc1c[nH]c2ccccc12 [I3C, indole-3-carbinol, reference compound] | reduced the incidence | reduced the incidence | inhibit proliferation | reduced the incidence | inhibit proliferation | – | – | – |
| CCC(=O)O[C@H]1CC[C@H]2[C@@H]3CCC4=CC(=O)CC[C@]4(C)[C@H]3CC[C@]12C [TP, Testosterone propionate] | – | – | – | – | – | marked increase | 0 | insignificant |
